From PubChem BioAssay (NCI)
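Values below derive from 48-hour exposures of cells grown in 96-well plates, with endpoints linearly interpolated between the two concentrations bracketing the appropriate inhibition level. GI50 is the concentration that inhibits growth by half. TGI: total growth inhibition.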

Legend:
Test in all cases: NCI tumour cell line growth inhibition, 48 h
HOP-62 NSCLC = tested on: HOP-62 NSCLC
HOP-92 NSCLC = tested on: HOP-92 NSCLC
KM12 colon = tested on: KM12 colon
MDA-MB-231 breast = tested on: MDA-MB-231 breast
NCI-H226 lung = tested on: NCI-H226 lung
OVCAR-8 ovarian = tested on: OVCAR-8 ovarian
SF-295 CNS = tested on: SF-295 CNS
SW-620 colon = tested on: SW-620 colon
UACC-62 melanoma = tested on: UACC-62 melanoma
HCC-2998 colon = tested on: HCC-2998 colon

Row | SMILES | TGI (HOP-62 NSCLC) [µM] | TGI (HOP-92 NSCLC) [µM] | TGI (KM12 colon) [µM] | TGI (MDA-MB-231 breast) [µM] | TGI (NCI-H226 lung) [µM] | TGI (OVCAR-8 ovarian) [µM] | TGI (SF-295 CNS) [µM] | TGI (SW-620 colon) [µM] | TGI (UACC-62 melanoma) [µM] | TGI (HCC-2998 colon) [µM] | GI50 (HCC-2998 colon) [µM] | GI50 (HOP-62 NSCLC) [µM] | GI50 (KM12 colon) [µM] | GI50 (MDA-MB-231 breast) [µM] | GI50 (NCI-H226 lung) [µM] | GI50 (OVCAR-8 ovarian) [µM] | GI50 (SF-295 CNS) [µM] | GI50 (SW-620 colon) [µM] | GI50 (UACC-62 melanoma) [µM] | GI50 (HOP-92 NSCLC) [µM]
1 | COc1cccc(/C=C/c2cnc3ccccc3n2)c1OC | 64.9 | 88.2 | > 100 | > 100 | > 100 | > 100 | > 100 | > 100 | 91.2 |  |  |  |  |  |  |  |  |  |  | 
2 | NC(=O)C(c1ccccc1)N1CCOCC1 (stereo unspecified) | > 100 | > 100 | > 100 |  | > 100 | > 100 | > 100 | > 100 | > 100 |  |  |  |  |  |  |  |  |  |  | 
3 | Cc1cc(NS(=O)(=O)c2ccc(NC(=O)c3cccc4c(Nc5ccc(S(=O)(=O)N=C(N)N)cc5)c5ccccc5nc34)cc2)no1 | > 100 | > 100 | > 100 |  | > 100 | > 100 | > 100 | > 100 | > 100 | > 100 |  |  |  |  |  |  |  |  |  | 
4 | O=C(N/N=C/c1ccccc1O)C(=O)Nc1ccc(F)cc1 | > 100 |  | > 100 | > 100 | > 100 | > 100 | 15.5 | > 100 | 23.1 | > 100 | 4.61 | 10.7 | 6.97 | 3.23 | 16 | 4.3 | 1.81 | 6.26 | 3.32 | 
5 | COc1ccc(/C=C\c2cc(OC)c(OC)c(OC)c2)cc1OC(=O)CCC(=O)O | > 100 |  |  |  | < 0.0001 | 69.6 | 67.7 | > 100 |  |  |  |  |  |  |  |  |  |  |  | 
6 | CC(C)(C)C(=O)ON1N=NC2C3CC(OCc4ccccc4)(OCc4ccccc4)C(O3)C21 (stereo unspecified) | > 100 | 27.2 | 55.4 |  | 40 |  | 52.9 | 50.7 | 44.9 | 31.2 |  |  |  |  |  |  |  |  |  | 
7 | O=C1CN(C(=O)c2ccccc2)Cc2[nH]c3ccccc3c21 | > 100 | > 100 | > 100 |  | > 100 | > 100 | > 100 | > 100 | > 100 | > 100 |  |  |  |  |  |  |  |  |  | 
8 | Fc1ccc(C2SCc3nc4ccccc4n32)cc1 (stereo unspecified) | > 100 | 62 | > 100 |  | 92.4 | > 100 | > 100 | > 100 |  |  |  |  |  |  |  |  |  |  |  | 
9 | COc1ccccc1C#Cc1ccccc1C#CCCCCCC#Cc1ccccc1C#Cc1ccccc1OC | > 100 |  | > 100 | > 100 | > 100 | > 100 | > 100 | > 100 | > 100 | 69.7 | 18.8 | > 100 | 75 | 60.3 | > 100 | > 100 | > 100 | > 100 | > 100 | 
10 | O=C(c1ccco1)c1c(C(F)(F)F)n([O-])c2ccccc2[n+]1=O | 4.34 | 0.986 | 8.18 | 3.6 | 4.31 | 22.5 | 7.69 | 20.5 | 2.61 |  |  | 0.949 | 0.911 | 0.772 | 0.665 | 1.23 | 1.32 | 0.859 | 0.536 | 0.144
11 | CCCCCCCCCCCCSC(=N)N | 28.9 |  | 11.3 | 8.28 | 44.5 | 23.4 | 5.55 | 8.14 | 31 | 5.62 | 2.31 | 10.7 | 3.33 | 2.03 | 18.5 | 5.77 | 2.35 | 2.73 | 15.7 | 
12 | COc1ccccc1NC(=O)C1=C(C)NC(C)=C(C(=O)Nc2ccccc2OC)C1c1ccc(C)cc1 | > 100 | > 100 | > 100 |  | > 100 | > 100 | > 100 | > 100 | > 100 | > 100 |  |  |  |  |  |  |  |  |  | 
13 | Cc1cc(=O)oc2cc(OCc3c(F)cccc3Cl)ccc12 | 38 | 33.2 |  | > 100 | > 100 | > 100 | 52.9 |  | 35 |  |  |  |  |  |  |  |  |  |  | 
14 | CCN(c1ccc(Br)cc1)c1c(Br)c(=O)nc2ccccn12 | > 100 | > 100 | > 100 |  | > 100 | > 100 |  | > 100 | > 100 |  |  |  |  |  |  |  |  |  |  | 
15 | O=C1C(=O)N(c2ccc(Cl)cc2Cl)C(=O)C(=O)C1c1nc2ccccc2o1 | > 100 | > 100 | > 100 |  | > 100 | > 100 | > 100 | > 100 | > 100 | > 100 |  |  |  |  |  |  |  |  |  | 
16 | CC(=O)OC1(C)C(=O)OC1(C)C(C)=O (stereo unspecified) |  | > 100 | > 100 |  | > 100 | > 100 | > 100 | > 100 | > 100 | > 100 |  |  |  |  |  |  |  |  |  | 
17 | O=C(CC(=O)N1N=C(N2c3ccccc3Sc3ccccc32)CC1c1ccccc1)Nc1ccc(Cl)cc1 (stereo unspecified) | > 100 | > 100 | > 100 |  |  | > 100 | > 100 | > 100 | > 100 | > 100 |  |  |  |  |  |  |  |  |  | 
18 | NC(N)=NNC(=O)CCCCCCCC(=O)NN=C(N)N | > 100 |  | > 100 |  |  |  | > 100 | 27.4 | > 100 | > 100 |  |  |  |  |  |  |  |  |  | 
19 | O=C(OCC1CO1)c1cccs1 (stereo unspecified) | > 100 | > 100 | > 100 |  |  | > 100 | > 100 | > 100 | > 100 | > 100 |  |  |  |  |  |  |  |  |  | 
20 | CO[C@@H]1/C=C(C)/C=C/[C@@H](C)/C=C(\C)C(=O)OC(/C(C)=C/C=C(\C)CNC(=O)[C@H](CO)NC=O)[C@@H](C)/C=C/C=C/[C@H](OC)CC/C=C(C)/C=C/C1 (stereo partly specified) | < 0.005 | 0.0852 | 8 |  | 0.221 | 3.18 | 0.00951 | 13.6 | < 0.005 |  |  | < 0.005 | < 0.005 | 0.292 | < 0.005 | 0.0105 | < 0.005 | < 0.005 | < 0.005 | < 0.005
